Here are results for two molecules from patent publication EP2581085A1, “Pharmaceutical composition for nasal administration of metopimazine” (priority 2011, dated 2013).

Read-outs that look alike come from different tables or passages of the source.

Series [1] in a line: Pharmacokinetic study in rabbit after nasal or IV administration (plasma MPZ and AMPZ by HPLC with fluorescence detection). The format is in vivo, lapin. As for the experimental part: Le passage par voie nasale de la métopimazine a été caractérisé chez l'animal dans un modèle de référence qu'est le lapin. Les lapins utilisés étaient des femelles de race néozélandaises provenant de chez Charles River (poids 3,5 kg). La formulation testée chez le lapin a été la suivante: • Formule 1 : • Métopimazine : 10mg • NaCl : QSP 300mOsm • Tampon Citrate : QSP pH 5.5 • Eau : QSP 1ml
La posologie administrée au lapin a été calculée à partir de la dose pédiatrique soit 1 mg / kg / jour en 3 prises. Le poids des lapins étant de 3,5 kg, la dose par prise est d'environ 1 mg. La dose est donc administrée par instillation de 50 µl dans chaque narine d'une solution à 10 mg/ml.
Avant toute manipulation, le lapin est placé dans des cages de contention. Un cathéter est introduit sur chaque oreille du lapin au niveau de la veine marginale et d'une artère. Le cathéter veineux a permis d'injecter le soluté de remplissage (sérum physiologique) et le cathéter artériel a servi aux différents prélèvements sanguins tout au long de la manipulation. Les prélèvements ont été réalisés à temps réguliers : 0, 5, 10, 20, 30, 60, 120, 240 et 480 minutes. La préparation est administrée aux lapins en position supinale. Les lapins sont être maintenus dans cette position au moins 5 minutes après administration pour assurer le contact entre l'épithélium et la formulation. La solution nasale est administrée par instillation d'un volume de 50µL avec une micropipette dans chaque narine du lapin. Le volume du prélèvement est d'environ 3 mL. Après 2 h, les lapins sont placés dans leur cage avec un libre accès à la nourriture et à l'eau dans l'attente des prélèvements suivants. Le dosage est réalisé par CLHP avec détection par fluorescence en utilisant la méthode décrite par Angelo et al. J of Chrom, 496; 472-477, (1989). L'appareil de dosage est constitué d'une pompe Jasco, d'un injecteur Kontron et d'un détecteur de fluorescence Varian Prostar.
L'étude pharmacocinétique a été conduite sur le logiciel PK Solutions 2.
La formule 1 a été comparée à la voie IV. La métopimazine a été administrée dans la veine marginale de l'oreille. Les concentrations plasmatiques de la MPZ et l'AMPZ sont représentées également dans la figure 2.
Selon le même protocole, une autre formulation a été testée. • Formule 2 : • Métopimazine : 10mg • DMβCD : 21mg • NaCl : QSP 300mOsm • Tampon Citrate : QSP pH 5.5 • Eau : QSP 1ml

Series [2] is described as follows: Local tolerance study in rabbit, nasal administration for 7 days, histology of the anatomical piece. Also on record: key: Non renseigné : absent ou négligeable; +: faible intensité; ++: Intensité modérée; +++: Intensité marquée. Particulars: 7 days of Formule 1 200µLx3/J. The format is in vivo, lapin. As for the experimental part: La tolérance a été étudiée chez le lapin après administration de 2mg de Formule 1 X3/j pendant 7 jours. Chaque lapin était son propre contrôle, puisqu'une narine recevait le Vogalène pendant que la seconde recevait une solution de sérum physiologique. Après l'exposition, les lapins sont sacrifiés afin de récupérer et d'étudier la pièce anatomique.

The conditions of series [3]: hepatic first-pass effect, cited from earlier work.
Where [4] appears, read: sampling 14h after last administration, one rabbit and one sample (A-D).
Where [5] appears, read: sampling 70h after last administration, each column = one rabbit and one sample (A-C).
The mark [6] stands for this setting: MPZ in plasma after IV administration of métopimazine, lapin, n=2.

By Cmax is commonly meant the peak of the concentration-time curve. The half-life is how long it takes for the measured level to halve.

With `CS(=O)(=O)c1ccc2c(c1)N(CCCN1CCC(C(=O)O)CC1)c1ccccc1S2` [AMPZ, acide de métopimazine], the t max in series [1] (in vivo) is recorded as 10 min. In series [1] (in vivo, iv), this molecule yielded an AUC of 5765 ng/mL/min, a C max of 40 ng/mL, a T1/2 of 105 min and a t max of 20 min.

As to `CS(=O)(=O)c1ccc2c(c1)N(CCCN1CCC(C(N)=O)CC1)c1ccccc1S2` [MPZ, métopimazine], in series [2] (setting [4]), the “Hyperplasie des cellules de réserve” value was “+”, the “Inflammation dans le chorion” value is given as “+” and the “Perte des cellules caliciformes” value is recorded as “+”. In addition, in series [2] (setting [5]), the “Hyperplasie des cellules de réserve” value is “+ and ++”; the “Inflammation épithéliale” value was “+ and + avec eosinophiles et lymphocytes”; the “Perte des cellules caliciformes” value was “+++ and + and ++”; the Perte des cils result was “+++ and + and ++”. Besides, the “biodisponibilité par voie orale” value in series [3] (oral route) was 22,3%. The “biodisponibilité par voie rectale” value in series [3] (rectal route) was 19,5%. The t max in series [1] (MPZ in plasma after IV administration of métopimazine (veine marginale de l'oreille), lapin, n=2, read-out: t max (converted)) was 5 min. Also, in series [1] (setting [6]), the Cmax was found to be 17.4 ng/mL and the half-life turned out to be 72 min. For the same molecule, in series [1] (MPZ in plasma after IV administration of métopimazine, lapin, n=2, read-out: AUC (converted)), the AUC is 23.4 ng·h/mL. In series [1] (MPZ in plasma after nasal administration, 50 µl in each nostril of a 10 mg/ml solution (about 1 mg), lapin, n=2, read-out: t max (converted)), the t max is 5 min. In series [1] (MPZ in plasma after nasal administration, about 1 mg, lapin, n=2), this molecule registered a maximum concentration (Cmax) of 9.2 ng/mL. Besides, in series [1] (plasma, 1 mg, lapin, nasal route compared with IV, b45 = formulation tested (Formule 1), b50 = Formule 2, read-out: biodisponibilité de la MPZ par voie nasale), the bioavailability is roughly 50%.
